# Reference: patent publication US20130096098A1, “Light Insensitive Silver(i) Cyanoximates As Antimicrobial Agents For Indwelling Medical Devices” (MISSOURI STATE UNIVERSITY, priority 2011, published 2013)
# Where two headings read alike, the source gives them in different places.
# How the values were obtained:
# [1] = system: inoculated microorganisms; assay: Antibacterial tests in solid state: soaked dried filter paper disks on agar plates; format: cell-based; conditions: deposited on filter papers from DMF 10 mg/mL, 20 μL; 37° C., 24 h
# Description: (§1) Antimicrobial Activity Studies. Bacterial Strains and Growing Conditions. The strains of bacteria were obtained from Polish Collection of Microorganisms (PCM) of the Institute of Immunology and Experimental Therapy of Polish Academy of Sciences and were used throughout this study. Both Gram-negative and Gram-positive bacteria, as well as yeasts, commonly isolated from patients suffering implant-related infections, were chosen for experiments. They included Escherichia coli PCM 1144 (ATCC #10536), Klebsiella pneumoniae PCM 57, Proteus sp. PCM 542 (ATCC #13315), Pseudomonas aeruginosa PCM 2563 (ATCC #15442), Streptococcus mutans PCM 2502, Staphylococcus aureus PCM 2602 (ATCC #6538), Enterococcus hirae PCM 2559 (ATCC #10541), Mycobacterium fortuitum PCM 672, Candida albicans PCM 2566 (ATCC #10231). In addition, several multidrug-resistant bacterial strains isolated from patients with nosocomial infections K. pneumoniae 244, P. aeruginosa 2314, AMA, Enterococcus faecium VRE (vancomycin-resistant), Streptococcus pneumoniae PCI, S. aureus MRSA (methicillin-resistant), S. aureus MRSC (coagulase-negative methicillin-resistant), were also included in the in vitro testing. Bacteria were cultivated on sugar broth at 37° C. for 24 h in aerobic conditions, and prior to use in tests, cells were diluted with the same medium to obtain suspensions of about 2×10^5 cfu/mL.
# Antibacterial Tests in Solid State: Soaked Dried Paper Disks and Pellets. Solutions (or suspensions if the compound was not completely solubilized) of studied Ag(I) cyanoximates in DMF at 10 mg/mL concentration were prepared and 20 μL of it was placed on filter paper discs (diameter 12 mm). These discs were dried for ˜2 h in the dark prior to testing where each filter was placed on agar plates with inoculated microorganisms, which were then incubated at 37° C. for 24 h. Thereafter, microorganisms' growth inhibition zone (if present) was measured (in mm).
# Mycobacterium fortuitum = assay: Antibacterial tests in solid state: pressed AgL pellets on agar plates; format: cell-based
# Description: as §1
# (§2) Also, Ag(I) cyanoximates were pressed into 12 mm in diameter pellets using a Carver 20 tons hydraulic press. The method of testing pellets was similar to the one described above. Solid pellets of AgL were carefully placed on agar plates with inoculated bacteria. The exposition time was 24 h at 37° C., after which inhibition zones were measured and results were documented by digital photography.
# Pseudomonas aeruginosa = assay: as above; format: cell-based
# Description: as §1, §2
# bacterial strains = assay: Antibacterial tests in solutions, microplate Alamar Blue assay (MIC); format: cell-based; conditions: stock in DMSO, 37° C., 48 h, tested infection agents
# Description: Antimicrobial Activity Studies. Bacterial Strains and Growing Conditions. The strains of bacteria were obtained from Polish Collection of Microorganisms (PCM) of the Institute of Immunology and Experimental Therapy of Polish Academy of Sciences and were used throughout this study. Both Gram-negative and Gram-positive bacteria, as well as yeasts, commonly isolated from patients suffering implant-related infections, were chosen for experiments. They included Escherichia coli PCM 1144 (ATCC #10536), Klebsiella pneumoniae PCM 57, Proteus sp. PCM 542 (ATCC #13315), Pseudomonas aeruginosa PCM 2563 (ATCC #15442), Streptococcus mutans PCM 2502, Staphylococcus aureus PCM 2602 (ATCC #6538), Enterococcus hirae PCM 2559 (ATCC #10541), Mycobacterium fortuitum PCM 672, Candida albicans PCM 2566 (ATCC #10231). […]
# Antibacterial Tests in Solutions. The antibacterial activities of synthesized Ag(I) cyanoximates were determined against bacterial strains by the microplate Alamar Blue assay. […] The fluorescence was measured using Victor^2 apparatus (Wallac, Perkin-Elmer), and the experiment was repeated three times. […] Means and standard error values were determined using the Microsoft Excel.
# [2] = UV-light stability studies, low-pressure Hg lamp 254 nm; format: physicochemical
# Experimental: Photophysical Measurements. Light sensitivity and stability of synthesized Ag(I) cyanoximates was studied at 296 K using a low-pressure Hg lamp with >85% output at λmax=254 nm where the intensity of light was measured with a UVX radiometer (UK). After 4 min warm-up time, this lamp generated a steady flux of UV-radiation that was equal to the dose of 10.13 J/cm^2 within 30 min. Prior to these investigations, complexes were thoroughly dried under high vacuum (<10^−4 Torr) and ground into a powder using an agate mortar. This made it easy to apply these compounds to paper, adhesive tape, or cardboard. Samples of complex were spread on white cardboard with an exposed circular area (via a mask) of ˜3 cm. The radiation source was positioned 1 cm from the sample. A pristine white silver chloride prepared in the dark was used as a control substance to access the light stability of silver(I) cyanoximates. Digital pictures of irradiated samples were taken every 30 min using a stationary digital camera (Kodak DX7630; 6.1 Mpx), and native images were cropped to square shape without any contrast or brightness editing using Samsung Digimax Viewer 2.0 software.
# [3] = 12 mm pressed pellets, 24 h at 37° C., FIG. 10
Compound,effect on bacterial growth on solid media (inhibition zones) [1],growth inhibition zone (Mycobacterium fortuitum; [3]),growth inhibition zone (Pseudomonas aeruginosa; [3]),stability toward short wavelength UV-radiation [2],also measured
"N#CC(=N[O-])C(=O)c1ccccc1.[Ag+] [Ag(BCO), Silver(I) α-Oximido-(2-benzoyl)acetonitrile]",exhibit antimicrobial activity in the solid state,,,,
"Cn1c(C(C#N)=N[O-])nc2ccccc21.[Ag+] [Ag(BIMCO), Silver(I) α-Oximido-(2-[N-methyl]benzoimidazolyl)acetonitrile]",exhibit antimicrobial activity in the solid state,,,,
"N#CC(=N[O-])c1nc2ccccc2o1.[Ag+] [Ag(BOCO), 2-(Oximido)-2-benzoxazoleacetonitrile Silver(I)]",exhibit antimicrobial activity in the solid state,clear inhibition zones,clear inhibition zones,,
"CN(C)C(=O)C(C#N)=N[O-].[Ag+] [Ag(DCO), Silver(I) α-Oximido-([N,N-dimethylamine]acetamide)acetonitrile]",exhibit antimicrobial activity in the solid state,,,resistance,"minimal inhibitory concentration (MIC), ranking (bacterial strains): lowest MIC value; growth inhibition zone (Mycobacterium fortuitum): clear inhibition zones; growth inhibition zone (Pseudomonas aeruginosa): clear inhibition zones"
"CCOC(=O)C(C#N)=N[O-].[Ag+] [Ag(ECO), Silver(I) α-Oximido-(ethylacetoxy)acetonitrile]",exhibit antimicrobial activity in the solid state,clear inhibition zones,clear inhibition zones,,
"[Cl][Ag] [AgC1, silver chloride, reference compound]",,,,completely darken,
Silver(I) Nitrosodicyanomethanide [Ag(CCO)],exhibit antimicrobial activity in the solid state,clear inhibition zones,clear inhibition zones,,"stability toward short wavelength UV-radiation ([2]; solid powders, 254 nm, 296 K, FIG. 8): resistance"
Silver(I) α-Oximido-(2-pivaloyl)acetonitrile [Ag(PiCO)],exhibit antimicrobial activity in the solid state,,,,"minimal inhibitory concentration (MIC), ranking (bacterial strains): lowest MIC value"
Silver(I) α-Oximido-(acetamide)acetonitrile [Ag(ACO)],,,,resistance,
